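All cell lines were grown in 96-well plates and treated with compound for 48 hours. GI50 = concentration required for 50% inhibition of growth. TGI denotes the concentration required for complete inhibition of growth.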
Legend:
Assay in all cases: NCI anticancer screen, dose series, 48 h
SK-MEL-2 melanoma = test system: SK-MEL-2 melanoma
NCI-H226 lung = test system: NCI-H226 lung
HS 578T breast = test system: HS 578T breast
OVCAR-5 ovarian = test system: OVCAR-5 ovarian
CCRF-CEM leukemia = test system: CCRF-CEM leukemia
OVCAR-8 ovarian = test system: OVCAR-8 ovarian
MDA-MB-435 = test system: MDA-MB-435
ACHN renal = test system: ACHN renal
HCC-2998 colon = test system: HCC-2998 colon
SR leukemia = test system: SR leukemia
MALME-3M melanoma = test system: MALME-3M melanoma
SW-620 colon = test system: SW-620 colon
SK-MEL-5 melanoma = test system: SK-MEL-5 melanoma
SF-539 CNS = test system: SF-539 CNS
NCI-H460 lung = test system: NCI-H460 lung
786-0 renal = test system: 786-0 renal
DU-145 prostate = test system: DU-145 prostate
A549 NSCLC = test system: A549 NSCLC
UACC-257 melanoma = test system: UACC-257 melanoma
HCT-116 colon = test system: HCT-116 colon
MOLT-4 leukemia = test system: MOLT-4 leukemia
RXF 393 renal = test system: RXF 393 renal
SK-OV-3 ovarian = test system: SK-OV-3 ovarian
NCI/ADR-RES ovarian = test system: NCI/ADR-RES ovarian
RPMI-8226 leukemia = test system: RPMI-8226 leukemia
TK-10 renal = test system: TK-10 renal
T-47D breast = test system: T-47D breast
SF-295 CNS = test system: SF-295 CNS
SN12C renal = test system: SN12C renal
SNB-19 CNS = test system: SNB-19 CNS
HOP-62 NSCLC = test system: HOP-62 NSCLC
CAKI-1 renal = test system: CAKI-1 renal
SNB-75 CNS = test system: SNB-75 CNS
HL-60(TB) leukemia = test system: HL-60(TB) leukemia
SF-268 CNS = test system: SF-268 CNS
U251 CNS = test system: U251 CNS
OVCAR-4 ovarian = test system: OVCAR-4 ovarian
M14 melanoma = test system: M14 melanoma
PC-3 prostate = test system: PC-3 prostate
MDA-MB-231 breast = test system: MDA-MB-231 breast
BT-549 breast = test system: BT-549 breast
A498 renal = test system: A498 renal
KM12 colon = test system: KM12 colon
OVCAR-3 ovarian = test system: OVCAR-3 ovarian
LOX IMVI melanoma = test system: LOX IMVI melanoma
NCI-H522 lung = test system: NCI-H522 lung
HOP-92 NSCLC = test system: HOP-92 NSCLC
UO-31 renal = test system: UO-31 renal
EKVX NSCLC = test system: EKVX NSCLC
COLO 205 colon = test system: COLO 205 colon
IGROV1 ovarian = test system: IGROV1 ovarian
K-562 leukemia = test system: K-562 leukemia
NCI-H23 lung = test system: NCI-H23 lung
UACC-62 melanoma = test system: UACC-62 melanoma
MCF7 breast = test system: MCF7 breast
SK-MEL-28 melanoma = test system: SK-MEL-28 melanoma
HCT-15 colon = test system: HCT-15 colon
HT29 colon = test system: HT29 colon

Structure (SMILES): CCC(=C(c1ccc(OCCN2CCCCCC2)cc1)c1ccc(OCCN2CCCCCC2)cc1)c1ccc(Cl)cc1
- GI50 (SK-MEL-2 melanoma): 3.96 µM
- TGI (SK-MEL-2 melanoma): 8.63 µM
- GI50 (NCI-H226 lung): 4.48 µM
- TGI (NCI-H226 lung): 9.56 µM
- GI50 (HS 578T breast): 0.727 µM
- TGI (HS 578T breast): 1.87 µM
- GI50 (OVCAR-5 ovarian): 3.73 µM
- TGI (OVCAR-5 ovarian): 8.25 µM
- GI50 (CCRF-CEM leukemia): 0.657 µM
- TGI (CCRF-CEM leukemia): 1.79 µM
- GI50 (OVCAR-8 ovarian): 4.28 µM
- TGI (OVCAR-8 ovarian): 9.41 µM
- GI50 (MDA-MB-435): 0.644 µM
- TGI (MDA-MB-435): 1.36 µM
- GI50 (ACHN renal): 1.55 µM
- TGI (ACHN renal): 5.79 µM
- GI50 (HCC-2998 colon): 0.553 µM
- TGI (HCC-2998 colon): 1.13 µM
- GI50 (SR leukemia): 0.585 µM
- TGI (SR leukemia): 1.34 µM
- GI50 (MALME-3M melanoma): 0.576 µM
- TGI (MALME-3M melanoma): 1.27 µM
- GI50 (SW-620 colon): 0.555 µM
- TGI (SW-620 colon): 1.21 µM
- GI50 (SK-MEL-5 melanoma): 0.722 µM
- TGI (SK-MEL-5 melanoma): 1.73 µM
- GI50 (SF-539 CNS): 0.643 µM
- TGI (SF-539 CNS): 1.37 µM
- GI50 (NCI-H460 lung): 0.645 µM
- TGI (NCI-H460 lung): 1.25 µM
- GI50 (786-0 renal): 0.578 µM
- TGI (786-0 renal): 1.18 µM
- GI50 (DU-145 prostate): 1.36 µM
- TGI (DU-145 prostate): 5.02 µM
- GI50 (A549 NSCLC): 1.11 µM
- TGI (A549 NSCLC): 4.21 µM
- GI50 (UACC-257 melanoma): 0.651 µM
- TGI (UACC-257 melanoma): 1.4 µM
- GI50 (HCT-116 colon): 0.582 µM
- TGI (HCT-116 colon): 1.36 µM
- GI50 (MOLT-4 leukemia): 0.685 µM
- TGI (MOLT-4 leukemia): 1.74 µM
- GI50 (RXF 393 renal): 0.754 µM
- TGI (RXF 393 renal): 2.25 µM
- GI50 (SK-OV-3 ovarian): 4.23 µM
- TGI (SK-OV-3 ovarian): 8.59 µM
- GI50 (NCI/ADR-RES ovarian): 1.93 µM
- TGI (NCI/ADR-RES ovarian): 6.52 µM
- GI50 (RPMI-8226 leukemia): 0.749 µM
- TGI (RPMI-8226 leukemia): 1.64 µM
- GI50 (TK-10 renal): 4.37 µM
- TGI (TK-10 renal): 9 µM
- GI50 (T-47D breast): 0.649 µM
- TGI (T-47D breast): 5.31 µM
- GI50 (SF-295 CNS): 0.644 µM
- TGI (SF-295 CNS): 1.31 µM
- GI50 (SN12C renal): 3.44 µM
- TGI (SN12C renal): 8.58 µM
- GI50 (SNB-19 CNS): 0.833 µM
- TGI (SNB-19 CNS): 2.34 µM
- GI50 (HOP-62 NSCLC): 2.64 µM
- TGI (HOP-62 NSCLC): 7.58 µM
- GI50 (CAKI-1 renal): 1 µM
- TGI (CAKI-1 renal): 4.49 µM
- GI50 (SNB-75 CNS): 1.97 µM
- TGI (SNB-75 CNS): 6.85 µM
- GI50 (HL-60(TB) leukemia): 0.683 µM
- TGI (HL-60(TB) leukemia): 1.6 µM
- GI50 (SF-268 CNS): 2.33 µM
- TGI (SF-268 CNS): 7.47 µM
- GI50 (U251 CNS): 0.597 µM
- TGI (U251 CNS): 1.15 µM
- GI50 (OVCAR-4 ovarian): 3.9 µM
- TGI (OVCAR-4 ovarian): 8.71 µM
- GI50 (M14 melanoma): 0.639 µM
- TGI (M14 melanoma): 1.3 µM
- GI50 (PC-3 prostate): 1.7 µM
- TGI (PC-3 prostate): 6.14 µM
- GI50 (MDA-MB-231 breast): 2.06 µM
- TGI (MDA-MB-231 breast): 7.76 µM
- GI50 (BT-549 breast): 3.38 µM
- TGI (BT-549 breast): 7.52 µM
- GI50 (A498 renal): 4.88 µM
- TGI (A498 renal): 9.72 µM
- GI50 (KM12 colon): 1.06 µM
- TGI (KM12 colon): 3.6 µM
- GI50 (OVCAR-3 ovarian): 0.947 µM
- TGI (OVCAR-3 ovarian): 3.01 µM
- GI50 (LOX IMVI melanoma): 0.502 µM
- TGI (LOX IMVI melanoma): 1.01 µM
- GI50 (NCI-H522 lung): 3.54 µM
- TGI (NCI-H522 lung): 8.21 µM
- GI50 (HOP-92 NSCLC): 1.34 µM
- TGI (HOP-92 NSCLC): 6.07 µM
- GI50 (UO-31 renal): 1.72 µM
- TGI (UO-31 renal): 6.67 µM
- GI50 (EKVX NSCLC): 3.52 µM
- TGI (EKVX NSCLC): 8.01 µM
- GI50 (COLO 205 colon): 0.586 µM
- TGI (COLO 205 colon): 1.21 µM
- GI50 (IGROV1 ovarian): 1.35 µM
- TGI (IGROV1 ovarian): 5.21 µM
- GI50 (K-562 leukemia): 0.424 µM
- TGI (K-562 leukemia): 1.03 µM
- GI50 (NCI-H23 lung): 3.67 µM
- TGI (NCI-H23 lung): 8.19 µM
- GI50 (UACC-62 melanoma): 0.664 µM
- TGI (UACC-62 melanoma): 1.68 µM
- GI50 (MCF7 breast): 0.0916 µM
- TGI (MCF7 breast): 0.785 µM
- GI50 (SK-MEL-28 melanoma): 0.623 µM
- TGI (SK-MEL-28 melanoma): 1.2 µM
- GI50 (HCT-15 colon): 0.631 µM
- TGI (HCT-15 colon): 1.45 µM
- GI50 (HT29 colon): 0.652 µM
- TGI (HT29 colon): 1.41 µM
